Measured values as given in patent EP1488698A1, “Compositions for descreasing intracellular inositol trisphosphate concentration and uses thereof” (priority 1995, dated 1997).
Marks after values point to notes of the source that are not given here.

Experiments:
cortical neurons = assay: Calcium ion signalling (fura 2) in intact cortical neurons; format: cell-based, chick; conditions: neurons loaded to 150 ± 20 pmoles per mg protein; 10 µM glutamate agonist, 30 minutes
Method: Metabotropic receptor function was examined in intact neurons by assaying lysosphingolipid modulation of calcium ion signalling. Approximately 1 X 10^6 cortical neurons were cultured on rectangular L-polylysine-coated coverslips and loaded with lysocerebroside or lysosphingomyelin to a level of 150 ± 20 pmoles per mg protein. The neurons were returned to complete Ham's high glucose medium/DMEM (1:1, vol:vol) and infiltrated with 5 µM fura 2/AM (Molecular Probes, Eugene, OR). Fura 2 is a calcium chelator whose fluorescence absorbance shifts to shorter wavelength upon calcium ion binding is measurable in intact cells. A change in intraneuronal calcium ion concentration was monitored as a change in the fluorescence spectrum.
The neurons were exposed to 10 µM glutamate agonist (for example, ibotenate) for 30 minutes at 37°C. The coverslips were then transferred to quartz cuvettes in medium containing 250 µM sulfinpyrazone to prevent fura 2/AM diffusion. Fluorescence ratios were recorded in a Perkin-Elmer LS-5 Fluorescence Spectrometer thermostatted at 37°C at excitation wavelengths of 340 and 380 nm, and emission measurement at 500 nm. Calcium ion signalling in agonist-stimulated neurons was 3.0 ± 0.2 arbitrary units for ibotenate-exposed neurons.

[1] = system: primary chick cortical neurons; assay: Phosphoinositide hydrolysis assay (InsP3 production) in cultured primary cortical neurons; format: cell-based; conditions: for Ins-P-n with Lysosphinogolipid Modulator, agonist Aspartate: 100 μM Aspartate, 20 min, neurons preincubated with 20 μM modulator (or 20 μM + 20 μM Sphingosine), washed, normalized to control = 1.00; for enhancement of InsP3 level caused by sphingosine or by metabotropic glutamate receptor agonists / InsP3 signalling: cortical neurons; for InsP3 signalling: as shown in Table 1
Method: The neurons were seeded in 24-well plastic tissue culture plates that had been coated with L-polylysine.
Receptor-stimulated and basal unstimulated hydrolysis of phosphoinositides was measured by the following procedure. […] The cells were then washed twice with 1 ml Dulbecco's phosphate-buffered saline (PBS) and 0.5 ml of PBS containing 4.5 g/L glucose was added. Sphingosine, psychosine, lysosulphatide, or lysosphingomyelin, prepared as the hydrochloride salt dissolved in water, were then added to produce the desired extracellular concentration in specific wells, […] The cells were then washed twice with 1 ml PBS, and pre-incubated for 15 minutes at 37°C with 0.5 ml PBS containing 10 mM LiCl and the compound to be tested was added. […] The tubes were vortexed thoroughly, then centrifuged at 500 x g for 5 minutes to separate the aqueous and chloroform phases. For each sample, a 1.5-ml aliquot of the upper (aqueous) phase was applied to a small column containing BioRad AG1X8 resin (formate form). Free [^3H]inositol and [^3H]glycerophosphoinositol were washed through the column with 5 ml of a solution containing 5 mM sodium borate and 60 mM sodium formate. The total phosphorylated [^3H] inositol fraction was eluted from the column for radiometric scintillation spectrometry analysis with 3 ml 1.0 M ammonium formate/0.1 M formic acid.
(§1) In addition, a 0.5 ml aliquot of the lower (chloroform) phase of each sample was analyzed radiometrically by scintillation spectrometry in order to determine the quantity of lipid-bound [^3H]myo-inositol. Estimation of phosphoinositide hydrolysis by phospholipase C is based upon the quantity of [^3H]inositol phosphates produced, and is expressed as the percentage of the latter relative to total free and componential [^3H]inositol (dpm ammonium formate + dpm chloroform fractions).

PC12 cells = assay: Phosphoinositide hydrolysis assay (InsP3 production) in PC12 cells; format: cell-based, rat; conditions: for sensitivity of PC12 cells to bradykinin: even at relatively moderate levels
Source text: PC12 cells, from a rat adrenal pheochromocytoma cell line, were used as a model of neurons from the peripheral nervous system. These cells were obtained from a common laboratory cell culture stock and grown in plastic culture flasks in Dulbecco's modified Eagle's medium (DMEM) supplemented with 5% heat-inactivated horse serum and 10% heat-inactivated fetal calf serum (PC12 cells are also available from the American Type Culture Collection under the Accession number CRL 1721). The cells were grown at 37°C in 5% CO2 in air until a confluent monolayer formed. The cells were dispersed into 24-well plastic tissue culture plates at a density of 10^5 cells per well and used for the phosphoinositide hydrolysis assays (as described in Example 2).
Receptor-stimulated and basal unstimulated hydrolysis of phosphoinositides was measured by the following procedure. In order to label the cellular phosphoinositides metabolically, the primary cultures of chick cortical neurons (described in Example 1) were incubated overnight with 0.5 ml Dulbecco's modified Eagle's medium containing 1 µCi [^3H]myo-inositol per well. The cells were then washed twice with 1 ml Dulbecco's phosphate-buffered saline (PBS) and 0.5 ml of PBS containing 4.5 g/L glucose was added. Sphingosine, psychosine, lysosulphatide, or lysosphingomyelin, prepared as the hydrochloride salt dissolved in water, were then added to produce the desired extracellular concentration in specific wells, and the 24-well plates were swirled gently on a rotary shaker for 1 hour at 23°C. The cells were then washed twice with 1 ml PBS, and pre-incubated for 15 minutes at 37°C with 0.5 ml PBS containing 10 mM LiCl and the compound to be tested was added. After 30 minutes, the experiment was terminated by adding 1 ml of ice-cold methanol to each well and transferring the material in each well to polypropylene tubes that contained 0.4 ml water and 1 ml chloroform. The tubes were vortexed thoroughly, then centrifuged at 500 x g for 5 minutes to separate the aqueous and chloroform phases. For each sample, a 1.5-ml aliquot of the upper (aqueous) phase was applied to a small column containing BioRad AG1X8 resin (formate form). Free [^3H]inositol and [^3H]glycerophosphoinositol were washed through the column with 5 ml of a solution containing 5 mM sodium borate and 60 mM sodium formate. The total phosphorylated [^3H] inositol fraction was eluted from the column for radiometric scintillation spectrometry analysis with 3 ml 1.0 M ammonium formate/0.1 M formic acid.
as §1

CCCCCCCCCCCCC/C=C/[C@@H](O)[C@@H](N)COP(=O)([O-])OCC[N+](C)(C)C [lysosphingomyelin, sphingosyl phosphorylcholine]
agonist-elicited calcium signalling in lysosphingolipid-loaded neurons (cortical neurons): no calcium signalling measurably over controls
Ins-P-n with Lysosphinogolipid Modulator, agonist Aspartate [1]: 1.00±0.06^e
enhancement of InsP3 level caused by sphingosine or by metabotropic glutamate receptor agonists [1]: blocked this enhancement
InsP3 signalling [1]: potently modulated InsP3 signalling
InsP3 production (PC12 cells; PC12 cells, Fig 3): strongly inhibit
sensitivity of PC12 cells to bradykinin (PC12 cells; Fig 3): can entirely block

CCCCCCCCCCCCC/C=C/[C@@H](O)[C@@H](N)CO[C@@H]1O[C@H](CO)[C@H](O)[C@H](O)[C@H]1O [psychosine]
agonist-elicited calcium signalling in lysosphingolipid-loaded neurons (cortical neurons): no calcium signalling measurably over controls
Ins-P-n with Lysosphinogolipid Modulator, agonist Aspartate [1]: 1.00±0.06^e
enhancement of InsP3 level caused by sphingosine or by metabotropic glutamate receptor agonists [1]: blocked this enhancement
InsP3 signalling [1]: potently modulated InsP3 signalling
InsP3 production (PC12 cells; PC12 cells, Fig 3): strongly inhibit
IC50 (PC12 cells; Rattus norvegicus, PC-12, 0.5 h, read-out: concentration sufficient to reduce a metabotropic response to bradykinin to half maximum): 50 µM
sensitivity of PC12 cells to bradykinin (PC12 cells; Fig 3): can entirely block

CCCCCCCCCCCCC/C=C/[C@@H](O)[C@@H](N)CO [sphingosine]
basal, unstimulated InsP3 level in cortical neurons [1]: tonically enhanced
InsP3 signalling [1]: potently modulated InsP3 signalling
basal, unstimulated level of InsP3 production (PC12 cells; PC12 cells, Fig 3): tonically upregulated
